In patent publication US4897417A, “Prodrugs of 3,4-hydroxy benzoyloxypropanolamines” (E. I. Du Pont de Nemours & Co., priority 1988, dated 1990):

How the values were obtained:
[1] = tested on: isoproterenol-induced increase in heart rate; experiment: Effect on systemic beta-blockade upon topical administration (isoproterenol-induced heart rate in anesthetized dogs); assay type: in vivo, Mongrel dogs; conditions: for HR, ISO only: 0 min (dose), isoproterenol only, before treatment; for HR, ISO only / HR, baseline: 0.125% group; for HR: 0.125% topical, isoproterenol infusion 0.5 μg/kg/min; for HR, baseline: -30 min, before isoproterenol and before treatment; for systemic beta-blockade of isoproterenol-induced increase in heart rate / effect on the heart rate responses to isoproterenol: in words, 50 μL, 0.125% solution; for effect on the heart rate responses to isoproterenol: topical; for drop in heart rate: within 60 minutes, 0.125% concentration
Method: Mongrel dogs were anesthetized and control readings were made at -45 and -30 minutes. Following the -30 minute reading, an infusion of isoproterenol (0.5 μg/kg/min) was begun and maintained during the course of the experiment. Two readings of pretreatment isoproterenol responses were made at […] and at zero minutes. At zero minutes, a 50 μL sample of test compound was administered topically. This dose was repeated at 50, 60 and 90 minutes and the animal was monitored for heart rate for 180 minutes following the first application. Heart rate was obtained directly from the strip chart recording.

[2] = tested on: isoproterenol-induced increase in heart rate; experiment: as above; assay type: in vivo, Mongrel dogs; conditions: 120 min (dose) post-treatment, 0.125% topical, isoproterenol infusion 0.5 μg/kg/min
[3] = Ocular bioavailability in rabbits (aqueous humor levels after topical corneal dosing); assay type: in vivo, New Zealand White Rabbits; conditions: for area under the AH concentration time curve (AUC0-240'): 50 μL of 0.25% Timolol or 0.5% compound 8d; for absorption in the eye: topical
Method: The ocular bioavailability of Timolol and compound 8d (dipivaloyl ester prodrug of compound 9d) was evaluated in New Zealand White Rabbits. Fifty μL of a solution of 0.25% Timolol or 0.5% compound 8d (both in the same vehicle) were administered onto the cornea of both eyes of 48 rabbits (24 rabbits/compound). At 5, 15, 30, 60, 120, 180, 240, and 360 minutes after dosing, 3 rabbits (6 eyes) per compound were killed. Aqueous humor (AH), was quickly removed from the eyes, weighed and processed to determine tissue levels of Timolol or compound 8d and compound 9d.

| SMILES | area under the AH concentration time curve (AUC0-240') ([3]; aqueous humor, rabbits) | AUC of compound 8d in AH relative to AUC of Timolol in AH ([3]; aqueous humor, rabbits, after 0.25% Timolol or 0.5% compound 8d) [×] | absorption in the eye ([3]; in words, rabbits) | stability in rabbit ocular tissues ([3]; in words) | HR, ISO only [1] [bpm] | HR ([1]; 15 min post-treatment) [bpm] | HR ([1]; 30 min post-treatment) [bpm] | HR ([1]; 45 min post-treatment) [bpm] | HR ([1]; 60 min (dose) post-treatment) [bpm] | HR ([1]; 90 min post-treatment) [bpm] | HR ([1]; 150 min post-treatment) [bpm] | HR, baseline [1] [bpm] | systemic beta-blockade of isoproterenol-induced increase in heart rate [1] | effect on the heart rate responses to isoproterenol [1] | drop in heart rate [1] [bpm] | HR [2] [bpm] | delivery of compound 9d to the internal structures of the eye ([3]; in words, rabbits, topical compound 8d) |
| --- | --- | --- | --- | --- | --- | --- | --- | --- | --- | --- | --- | --- | --- | --- | --- | --- | --- |
| CC(=O)NCC(C)(C)NCC(O)COC(=O)c1cc(OC(=O)C(C)(C)C)c(OC(=O)C(C)(C)C)cc1C (stereo not drawn) [Compound 8a] |  |  |  |  | 215 | 214 | 213 | 210 | 208 | 207 | 202 | 152 | no systemic beta-blockade | no effect | 2 | 203 |  |
| Cc1cc(OC(=O)C(C)(C)C)c(OC(=O)C(C)(C)C)cc1C(=O)OCC(O)CNC(C)(C)CNC(N)=O (stereo not drawn) [Compound 8c] |  |  |  |  | 212 | 212 | 210 | 210 | 210 | 210 | 212 | 158 | no systemic beta-blockade | no effect | 7 | 210 |  |
| Cc1cc(OC(=O)C(C)(C)C)c(OC(=O)C(C)(C)C)cc1C(=O)OCC(O)CNC(C)(C)CNC(=O)C1CCOC1 (stereo not drawn) [Compound 8d] | 27,377 ng/100 μL/min | 3 | rapidly absorbed in the eye |  |  |  |  |  |  |  |  |  |  |  |  |  | effectively delivers compound 9d to the internal structures of the eye |

More lines, main results first:

| area under the AH concentration time curve (AUC0-240') ([3]; aqueous humor, rabbits) | AUC of compound 8d in AH relative to AUC of Timolol in AH ([3]; aqueous humor, rabbits, after 0.25% Timolol or 0.5% compound 8d) [×] | absorption in the eye ([3]; in words, rabbits) | stability in rabbit ocular tissues ([3]; in words) | SMILES | HR, ISO only [1] [bpm] | HR ([1]; 15 min post-treatment) [bpm] | HR ([1]; 30 min post-treatment) [bpm] | HR ([1]; 45 min post-treatment) [bpm] | HR ([1]; 60 min (dose) post-treatment) [bpm] | HR ([1]; 90 min post-treatment) [bpm] | HR ([1]; 150 min post-treatment) [bpm] | HR, baseline [1] [bpm] | systemic beta-blockade of isoproterenol-induced increase in heart rate [1] | effect on the heart rate responses to isoproterenol [1] | drop in heart rate [1] [bpm] | HR [2] [bpm] | delivery of compound 9d to the internal structures of the eye ([3]; in words, rabbits, topical compound 8d) |
| --- | --- | --- | --- | --- | --- | --- | --- | --- | --- | --- | --- | --- | --- | --- | --- | --- | --- |
|  |  |  | stable in rabbit ocular tissues | Cc1cc(O)c(O)cc1C(=O)OCC(O)CNC(C)(C)CNC(=O)C1CCOC1 (stereo not drawn) [Compound 9d] |  |  |  |  |  |  |  |  |  |  |  |  |  |
| 9,022 ng/100 μL/min |  | rapidly absorbed in the eye |  | CC(C)(C)NC[C@H](O)COc1nsnc1N1CCOCC1 [Timolol, reference compound] | 213 | 198 | 185 | 174 | 174 | 179 | 192 | 142 |  | significant inhibitory effect | 39 | 183 |  |
